Results on 17 compounds are retold here after PMC8333053, “Synthesis and biological screening of new thiadiazolopyrimidine-based polycyclic compounds” (Scientific Reports, 2021).

The structures appear in SMILES notation. Converted amounts (≈) assume the structure as drawn. Bounds are passed on as bounds.

Experiment [1] relates to Staphylococcus aureus ATCC 29213. Kind of experiment: Antibacterial MIC, two-fold serial dilution. In kind it is cell-based. The following applies: ATCC29213, Gram +ve bacteria, LB broth, 37°C, 24 h, visual (no turbidity), read-out: MIC S. aureus. As to the method: (§1) The antimicrobial activity of the synthesized thiadiazolopyrimidine compounds was studied toward diverse pathogenic strains, such as gram-positive bacteria (Staphylococcus aureus ATCC 29213 and Bacillus cereus UW85), gram-negative bacteria (Escherichia coli ATCC 12435 and Pseudomonas aeruginosa ATCC 29260), and fungi (Candida albicans and Aspergillus fumigatus 293). The assessment was performed through the two-fold dilution technique using Ampicillin (antibacterial) and Fluconazole (antifungal) as the reference drugs[28],[29]. The minimal inhibitory concentration (MICs, µg/mL) of the synthesized derivatives for prohibiting microbial growth was determined through the visual detection (no turbidity) technique.
(§2) The synthesized thiadiazolopyrimidine-based compounds were evaluated and adopted for antibacterial and antifungal effectiveness using the approved procedure[38],[39].
(§3) Minimal inhibitory concentrations (MICs) were determined by serial dilution technique using 96-multiwell microtiter plates. The investigated compounds were dissolved in DMSO 100% to prepare stock solutions of 5000 µg/mL. Two-fold serial dilutions of the dissolved compounds were performed in LB broth providing eight different concentrations (1250, 625, 312.5, 156, 78, 39, 19.5 µg/mL). Overnight cultures of microorganisms were diluted to 1 ×10^6 CFU/mL in LB broth, and 20 mL of the diluted cultures were added to the test solutions (50 mL) in the wells (one well per concentration per bacterial strain). The plates were incubated at 37°C for 24 h. MIC was detected visually as the least concentration inhibiting bacterial growth (no turbidity) and the activity of the tested compounds was estimated in comparison to ampicillin.

Experiment [2] has as its system Pseudomonas aeruginosa ATCC 29260. Kind of experiment: Antibacterial MIC, two-fold serial dilution. In kind it is cell-based. To be noted: ATCC29260, Gram −ve bacteria, LB broth, 37°C, 24 h, visual (no turbidity), read-out: MIC P. aeruginosa. As to the method:
as §1, §2, §3

In a further experiment the test system is Bacillus cereus UW85. Briefly: Antibacterial MIC, two-fold serial dilution. It counts as cell-based. The following applies: Gram +ve bacteria, LB broth, 37°C, 24 h, visual (no turbidity), read-out: MIC B. cereus. As to the method:
as §1, §2, §3

The test system of experiment [3] is Escherichia coli ATCC 12435. Briefly: Antibacterial MIC, two-fold serial dilution. In kind it is cell-based. To be noted: ATCC12435, Gram −ve bacteria, LB broth, 37°C, 24 h, visual (no turbidity). As to the method: as §1, §2, §3
The test system of a further experiment is DNA. Briefly: Bleomycin-dependent DNA damage. It counts as biochemical. The following applies: test sample 0.1 mg/mL, λ = 532 nm; mean of three replicates ± SD; ascorbic acid 0.24 mM. The source says: Bleomycin-dependent DNA damage. The prepared polycyclic thiadiazolopyrimidine-based compounds were examined through the bleomycin-dependant DNA damage, and the results were compared to that of ascorbic acid as a positive control. The obtained data reflected the ability of these derivatives to protect the DNA from damage. The capability of compounds 16a–b and 17a–b to manifest the best protective effect against DNA damage was indicated by the corresponding absorbance values ranging from 0.031 to 0.053 (Table 4)[35],[36].
Bleomycin-dependent DNA damage experiment: To a mixture of 0.5 mg / mL of DNA, 5 mM magnesium chloride, 50 mM ferric chloride and 0.05 mg / mL bleomycin sulfate was prepared. The test sample was prepared at a concentration of 0.1 mg / mL and added to the mixture. After incubation of the mixture for one hour at 37 °C, 0.05 mL of EDTA (0.1 M) was added to terminate the reaction. In the next step, 0.5 mL of TBA (1% w / v) and 0.5 mL of HCl (25% v / v) were added for colour development and the mixture was heated for 10 minutes at 80 °C. The mixture was centrifuged and the absorbance expressed, the amount of damage to the DNA was measured at λ = 532 nm. L-Ascorbic acid (0.24 mM) was used as a positive control.

Regarding `Cc1cc2nc3c(c(N)n2n1)c(=O)nc1scnn13` [Compound 13, 6-Amino-9-methyl-5H-pyrazolo[1′,5′:1,2]pyrimido[5,4-e][1,3,4]thiadiazolo[3,2-a]pyrimidin-5-one], the MIC – broadly, the least concentration at which growth counts as inhibited – in experiment [1] was 1250 µg/mL (≈ 4570 µM); in experiment [2] it was above 1250 µg/mL; in the experiment with Bacillus cereus UW85, above 1250 µg/mL; in experiment [3], 1250 µg/mL (≈ 4570 µM). The “Absorbance (bleomycin-dependent DNA damage)” value (“Absorbance” below) with DNA is listed as 0.128 ± 0.11.

`CCOC(=O)c1c(N)nc(N)c2c(=O)nc3scnn3c12` [Compound 7, Ethyl 6,8-diamino-5-oxo-5H-pyrido[3,4-e][1,3,4]thiadiazolo[3,2-a]pyrimidine-9-carboxylate]: the minimal inhibitory concentration (MIC) in experiment [1] is 1250 µg/mL (≈ 4080 µM); in experiment [2], 1250 µg/mL (≈ 4080 µM); with Bacillus cereus UW85, 1250 µg/mL (≈ 4080 µM); in experiment [3], 625 µg/mL (≈ 2040 µM). In addition, the “Absorbance” value in the experiment with DNA stood at 0.132 ± 0.19.

On to `COc1ccc(N=Nc2c(N)nn3c(N)c4c(=O)nc5scnn5c4nc23)cc1` [Compound 16b, 6,9-Diamino-10-(4-methoxyphenylazo)-5H-pyrazolo[1′,5′:1,2]pyrimido[5,4-e][1,3,4]thiadiazolo[3,2-a]pyrimidin-5-one], for which the MIC in experiment [1] was 625 µg/mL (≈ 1530 µM); in experiment [2] it was 78 µg/mL (≈ 191 µM); in the experiment with Bacillus cereus UW85, above 1250 µg/mL; in experiment [3], 19.5 µg/mL (≈ 47.7 µM). Moreover, in the experiment with DNA, the “Absorbance” value came out at 0.031 ± 0.04.

On to `CC1=C(C(=O)c2ccccc2)C2C(=C(N)O1)C(=O)N=C1SC=NN12` (stereo not shown) [Compound 8b, 6-Amino-9-benzoyl-8-methyl-5H,9aH-pyrano[3,4-e][1,3,4]thiadiazolo[3,2-a]pyrimidin-5-one], for which the MIC in experiment [1] stood at 156 µg/mL (≈ 458 µM); in experiment [2] it was 312 µg/mL (≈ 918 µM); in the experiment with Bacillus cereus UW85, 312 µg/mL (≈ 918 µM); in experiment [3], 1250 µg/mL (≈ 3670 µM). In the experiment with DNA, the “Absorbance” value is 0.066 ± 0.05.

For `Cc1n[nH]c2c1C1C(=C(N)O2)C(=O)N=C2SC=NN21` (stereo not shown) [Compound 10a, 6-Amino-10-methyl-8,10b-dihydro-5H-pyrazolo[4′,3′:5,6]pyrano[3,4-e][1,3,4]thiadiazolo[3,2-a]pyrimidin-5-one], the MIC was determined as 625 µg/mL (≈ 2260 µM) in experiment [1], 312 µg/mL (≈ 1130 µM) in experiment [2], 625 µg/mL (≈ 2260 µM) in the experiment on Bacillus cereus UW85 and 1250 µg/mL (≈ 4520 µM) in experiment [3]. Besides, the “Absorbance” value in the experiment on DNA amounted to 0.098 ± 0.07.

Consider `N#Cc1c(N)nc(N)c2c(=O)nc3scnn3c12` [Compound 6, 6,8-Diamino-9-cyano-5-oxo-5H-pyrido[3,4-e][1,3,4]thiadiazolo[3,2-a]pyrimidine], for which the MIC in experiment [1] was above 1250 µg/mL; in experiment [2] it was 1250 µg/mL (≈ 4820 µM); with Bacillus cereus UW85, 1250 µg/mL (≈ 4820 µM); in experiment [3], above 1250 µg/mL. For the same compound, in the experiment with DNA, the “Absorbance” value is listed as 0.135 ± 0.14.

Regarding `Nc1nn(-c2ccccc2)c2c1c(=O)nc1scnn12` [Compound 5, 3-Amino-1-phenylpyrazolo[4,3-e][1,3,4]thiadiazolo[3,2-a]pyrimidin-4(1H)-one], the MIC was 625 µg/mL (≈ 2200 µM) in experiment [1], 1250 µg/mL (≈ 4400 µM) in experiment [2], 625 µg/mL (≈ 2200 µM) in the experiment on Bacillus cereus UW85 and 1250 µg/mL (≈ 4400 µM) in experiment [3]. In addition, the “Absorbance” value in the experiment on DNA was 0.146 ± 0.16.

Turning to `Cc1ccc(N=Nc2c(O)nn3c(N)c4c(=O)nc5scnn5c4nc23)cc1` [Compound 17a, 6-Amino-9-hydroxy-10-(4-methylphenylazo)-5H-pyrazolo[1′,5′:1,2]pyrimido[5,4-e][1,3,4]thiadiazolo[3,2-a]pyrimidin-5-one], the MIC in experiment [1] is 625 µg/mL (≈ 1590 µM); in experiment [2], 156 µg/mL (≈ 397 µM); in the experiment on Bacillus cereus UW85, 625 µg/mL (≈ 1590 µM); in experiment [3] it was 156 µg/mL (≈ 397 µM). The “Absorbance” value in the experiment with DNA is on record as 0.053 ± 0.05.

Take `Nc1n[nH]c2c1c(=O)nc1scnn12` [Compound 4, 3-Aminopyrazolo[4,3-e][1,3,4]thiadiazolo[3,2-a]pyrimidin-4(1H)-one]: the MIC is 1250 µg/mL (≈ 6000 µM) in experiment [1], above 1250 µg/mL in experiment [2], above 1250 µg/mL with Bacillus cereus UW85 and above 1250 µg/mL in experiment [3]. In the experiment with DNA, the “Absorbance” value stood at 0.165 ± 0.19.

With `N#Cc1cn2ncsc2nc1=O` [Compound 3, 6-cyano-7-oxo-7H-[1,3,4]thiadiazolo[3,2-a]pyrimidine], the MIC in experiment [1] was 1250 µg/mL (≈ 7020 µM); in experiment [2], above 1250 µg/mL; in the experiment on Bacillus cereus UW85, above 1250 µg/mL; in experiment [3], above 1250 µg/mL. The “Absorbance” value in the experiment with DNA came to 0.281 ± 0.22.

In the case of `Nc1c2c(=O)nc3scnn3c2nc2nnnn12` [Compound 11, 6-Amino-5H-[1,3,4]thiadiazolo[2′,3′:2,3]pyrimido[4,5-d]tetrazolo[1,5-a]pyrimidin-5-one], the minimum inhibitory concentration (MIC) in experiment [1] is 312 µg/mL (≈ 1200 µM); in experiment [2] it was 1250 µg/mL (≈ 4790 µM); in the experiment on Bacillus cereus UW85, 1250 µg/mL (≈ 4790 µM); in experiment [3], above 1250 µg/mL. Moreover, in the experiment on DNA, the “Absorbance” value is on record as 0.113 ± 0.16.

Turning to `Cc1nn(-c2ccccc2)c2c1C1C(=C(N)O2)C(=O)N=C2SC=NN21` (stereo not shown) [Compound 10b, 6-Amino-10-methyl-8-phenyl-8,10b-dihydro-5H-pyrazolo[4′,3′:5,6]pyrano[3,4-e][1,3,4]thiadiazolo[3,2-a]pyrimidin-5-one], the MIC in experiment [1] was 625 µg/mL (≈ 1770 µM); in experiment [2] it was 625 µg/mL (≈ 1770 µM); with Bacillus cereus UW85, 625 µg/mL (≈ 1770 µM); in experiment [3] it was 312 µg/mL (≈ 887 µM). Further, the “Absorbance” value with DNA worked out at 0.119 ± 0.13.

As to `CC1=C(C#N)C2C(=C(N)O1)C(=O)N=C1SC=NN12` (stereo not shown) [Compound 9a, 6-Amino-9-cyano-8-methyl-5-oxo-5H,9aH-pyrano[3,4-e][1,3,4]thiadiazolo[3,2-a]pyrimidine], the MIC in experiment [1] turned out to be 312 µg/mL (≈ 1200 µM); in experiment [2] it was 625 µg/mL (≈ 2390 µM); in the experiment with Bacillus cereus UW85 it was 312 µg/mL (≈ 1200 µM); in experiment [3], 625 µg/mL (≈ 2390 µM). Besides, the “Absorbance” value with DNA came out at 0.064 ± 0.06.

For the compound `Cc1ccc(N=Nc2c(N)nn3c(N)c4c(=O)nc5scnn5c4nc23)cc1` [Compound 16a, 6,9-Diamino-10-(4-methylphenylazo)-5H-pyrazolo[1′,5′:1,2]pyrimido[5,4-e][1,3,4]thiadiazolo[3,2-a]pyrimidin-5-one], the MIC in experiment [1] was 1250 µg/mL (≈ 3190 µM); in experiment [2], 156 µg/mL (≈ 398 µM); with Bacillus cereus UW85, above 1250 µg/mL; in experiment [3], 78 µg/mL (≈ 199 µM). Also, in the experiment with DNA, the “Absorbance” value was determined as 0.039 ± 0.07.

Regarding `CC(=O)C1=C(C)OC(N)=C2C(=O)N=C3SC=NN3C12` (stereo not shown) [Compound 8a, 9-Acetyl-6-amino-8-methyl-5H,9aH-pyrano[3,4-e][1,3,4]thiadiazolo[3,2-a]pyrimidin-5-one], the MIC was found to be 312 µg/mL (≈ 1120 µM) in experiment [1], 1250 µg/mL (≈ 4490 µM) in experiment [2], 625 µg/mL (≈ 2250 µM) in the experiment with Bacillus cereus UW85 and 1250 µg/mL (≈ 4490 µM) in experiment [3]. In the experiment on DNA, the “Absorbance” value is on record as 0.078 ± 0.13.

Turning to `N#CC1=C(c2ccccc2)OC(N)=C2C(=O)N=C3SC=NN3C12` (stereo not shown) [Compound 9b, 6-Amino-9-cyano-5-oxo-8-phenyl-5H,9aH-pyrano[3,4-e][1,3,4]thiadiazolo[3,2-a]pyrimidine], the minimum inhibitory concentration (MIC) was 312 µg/mL (≈ 966 µM) in experiment [1], 625 µg/mL (≈ 1930 µM) in experiment [2], 156 µg/mL (≈ 482 µM) with Bacillus cereus UW85 and 625 µg/mL (≈ 1930 µM) in experiment [3]. In the experiment with DNA, the “Absorbance” value is listed as 0.083 ± 0.08.

In the case of `COc1ccc(N=Nc2c(O)nn3c(N)c4c(=O)nc5scnn5c4nc23)cc1` [Compound 17b, 6-Amino-9-hydroxy-10-(4-methoxyphenylazo)-5H-pyrazolo[1′,5′:1,2]pyrimido[5,4-e][1,3,4]thiadiazolo[3,2-a]pyrimidin-5-one], the MIC in experiment [1] is 1250 µg/mL (≈ 3050 µM); in experiment [2], 39 µg/mL (≈ 95.3 µM); in the experiment with Bacillus cereus UW85 it was 625 µg/mL (≈ 1530 µM); in experiment [3], 19.5 µg/mL (≈ 47.6 µM). Besides, the “Absorbance” value in the experiment with DNA is listed as 0.042 ± 0.03.
